Laboratory results taken from patent publication US20260262643A1, “HERBICIDAL BENZOXAZINES” (FMC CORPORATION, priority 2022, published 2026).

What was measured:
soybean = test: Test A preemergence; type: in vivo, Glycine max; details: Glycine max, pre-emergence, 240 h, read-out: Plant response rating, Soybean; for plant injury at 125 g/ha: 125 g ai/ha, visual injury after 10 days, 0 to 100 scale, 0 is no effect, 100 is complete control; for plant injury at 500 g/ha: 500 g ai/ha, 0 to 100 scale (0 no effect, 100 complete control), 10 days
Summary of the method: (§1)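 Loam/sand soil; pre-em directed soil spray at planting, post-em spray at 1–2 leaf (2–10 cm). Compound in non-phytotoxic solvent + surfactant. Greenhouse 10 d; visual injury vs untreated, 0 = no effect, 100 = complete control.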

barnyardgrass = test: Test B flooded paddy test; type: in vivo, Echinochloa crus-galli; details: Echinochloa crus-galli, 312 h, 250 g ai/ha, Flood, 13 days, 0 to 100 scale (0 no effect, 100 complete control); read-out: Plant response rating, Barnyardgrass
Summary of the method: (§2)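 Plants at the 2-leaf stage were flooded to 3 cm above the soil, and test compounds were applied directly into the paddy water, with that depth held throughout. After 13 days in a greenhouse, injury was rated visually against untreated controls on a 0–100 scale (100 = complete control).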

sedge, umbrella = test: Test B flooded paddy test; type: in vivo, Cyperus difformis; details: Cyperus difformis, 312 h; 250 g ai/ha, Flood, 13 days, 0 to 100 scale (0 no effect, 100 complete control); read-out: Plant response rating, Sedge, Umbrella
Summary of the method: as §2

goosegrass [1] = test: Test A postemergence; type: in vivo, Eleusine indica; details: Eleusine indica, post-emergence, 240 h, postemergence, 10 days, 0 to 100 scale (0 no effect, 100 complete control); for pest or weed control at 125 g/ha: 125 g ai/ha, read-out: Goosegrass plant response rating; for pest or weed control at 500 g/ha: 500 g ai/ha, visual injury, read-out: Plant response rating, Goosegrass
Summary of the method: as §1

rice = test: Test B flooded paddy test; type: in vivo, Oryza sativa; details: Oryza sativa, 312 h; 250 g ai/ha, Flood, 13 days, 0 to 100 scale (0 no effect, 100 complete control); read-out: Plant response rating, Rice
Summary of the method: as §2

goosegrass [2] = test: Test A preemergence; type: in vivo, Eleusine indica; details: Eleusine indica, pre-emergence, 240 h, read-out: Plant response rating, Goosegrass; for pest or weed control at 125 g/ha: 125 g ai/ha, visual injury after 10 days, 0 to 100 scale, 0 is no effect, 100 is complete control; for pest or weed control at 500 g/ha: 500 g ai/ha, 0 to 100 scale (0 no effect, 100 complete control), 10 days
Summary of the method: as §1

kochia = test: Test A postemergence; type: in vivo, Bassia scoparia; details: Bassia scoparia, post-emergence, 240 h, postemergence, 10 days, 0 to 100 scale (0 no effect, 100 complete control); for pest or weed control at 125 g/ha: 125 g ai/ha, read-out: Kochia plant response rating; for pest or weed control at 500 g/ha: 500 g ai/ha, visual injury, read-out: Plant response rating, Kochia
Summary of the method: as §1

blackgrass = test: Test A preemergence; type: in vivo, Alopecurus myosuroides; details: Alopecurus myosuroides, pre-emergence, 240 h, read-out: Plant response rating, Blackgrass; for pest or weed control at 125 g/ha: 125 g ai/ha, visual injury after 10 days, 0 to 100 scale, 0 is no effect, 100 is complete control; for pest or weed control at 500 g/ha: 500 g ai/ha, 0 to 100 scale (0 no effect, 100 complete control), 10 days
Summary of the method: as §1

foxtail, giant = test: Test A postemergence; type: in vivo, Setaria faberi; details: Setaria faberi, post-emergence, 240 h, postemergence, 10 days, 0 to 100 scale (0 no effect, 100 complete control); for pest or weed control at 125 g/ha: 125 g ai/ha, read-out: Foxtail, Giant plant response rating; for pest or weed control at 500 g/ha: 500 g ai/ha, visual injury, read-out: Plant response rating, Foxtail, Giant
Summary of the method: as §1

ragweed = test: Test A preemergence; type: in vivo, Ambrosia artemisiifolia; details: Ambrosia artemisiifolia, pre-emergence, 240 h, read-out: Plant response rating, Ragweed; for pest or weed control at 125 g/ha: 125 g ai/ha, visual injury after 10 days, 0 to 100 scale, 0 is no effect, 100 is complete control; for pest or weed control at 500 g/ha: 500 g ai/ha, 0 to 100 scale (0 no effect, 100 complete control), 10 days
Summary of the method: as §1

ryegrass, Italian = test: Test A postemergence; type: in vivo, Lolium multiflorum; details: Lolium multiflorum, post-emergence, 240 h, postemergence, 10 days, 0 to 100 scale (0 no effect, 100 complete control); for pest or weed control at 125 g/ha: 125 g ai/ha, read-out: Ryegrass, Italian plant response rating; for pest or weed control at 500 g/ha: 500 g ai/ha, visual injury, read-out: Plant response rating, Ryegrass, Italian
Summary of the method: as §1

pigweed, palmer = test: Test A postemergence; type: in vivo, Amaranthus palmeri; details: Amaranthus palmeri, post-emergence, 240 h, postemergence, 10 days, 0 to 100 scale (0 no effect, 100 complete control); for pest or weed control at 125 g/ha: 125 g ai/ha, read-out: Pigweed, Palmer plant response rating; for pest or weed control at 500 g/ha: 500 g ai/ha, visual injury, read-out: Plant response rating, Pigweed, Palmer
Summary of the method: as §1

corn = test: Test A postemergence; type: in vivo, Zea mays; details: Zea mays, post-emergence, 240 h, postemergence, 10 days, 0 to 100 scale (0 no effect, 100 complete control); for plant injury at 125 g/ha: 125 g ai/ha, read-out: Corn plant response rating; for Corn plant response rating (crop injury, 0 = no effect, 100 = complete kill) at 500 g/ha: 500 g ai/ha, visual injury
Summary of the method: as §1

## COc1ccc(-n2cnc(C(C)C)n2)cc1C(=O)N1C[C@H](C)Oc2c(Cl)cccc21 [Compound 84, [(2S)-8-chloro-2-methyl-2,3-dihydro-1,4-benzoxazin-4-yl]-[5-(3-isopropyl-1,2,4-triazol-1-yl)-2-methoxy-phenyl]methanone]
soybean
  plant injury at 125 g/ha: 90%
  plant injury at 500 g/ha: 100%
barnyardgrass
  pest or weed control at 250 g/ha: 65%
sedge, umbrella
  pest or weed control at 250 g/ha: 100%
Goosegrass [1]
  pest or weed control at 125 g/ha: 100%
  pest or weed control at 500 g/ha: 100%
rice
  plant injury at 250 g/ha: 0%
Goosegrass [2]
  pest or weed control at 125 g/ha: 100%
  pest or weed control at 500 g/ha: 100%
kochia
  pest or weed control at 125 g/ha: 90%
  pest or weed control at 500 g/ha: 90%
blackgrass
  pest or weed control at 125 g/ha: 80%
  pest or weed control at 500 g/ha: 80%
foxtail, giant
  pest or weed control at 125 g/ha: 80%
  pest or weed control at 500 g/ha: 100%
ragweed
  pest or weed control at 125 g/ha: 70%
  pest or weed control at 500 g/ha: 100%
ryegrass, Italian
  pest or weed control at 125 g/ha: 100%
  pest or weed control at 500 g/ha: 100%
pigweed, palmer
  pest or weed control at 125 g/ha: 90%
  pest or weed control at 500 g/ha: 100%
corn
  plant injury at 125 g/ha: 70%
  Corn plant response rating (crop injury, 0 = no effect, 100 = complete kill) at 500 g/ha: 90%

## CCc1ncn(-c2ccc(OC)c(C(=O)N3C[C@H](C)Oc4c(Cl)cccc43)c2)n1 [Compound 88, [(2S)-8-Chloro-2,3-dihydro-2-methyl-4H-1,4-benzoxazin-4-yl][5-(3-ethyl-1H-1,2,4-triazol-1-yl)-2-methoxyphenyl]methanone]
soybean
  plant injury at 125 g/ha: 50%
  plant injury at 500 g/ha: 100%
barnyardgrass
  pest or weed control at 250 g/ha: 45%
sedge, umbrella
  pest or weed control at 250 g/ha: 100%
Goosegrass [1]
  pest or weed control at 125 g/ha: 100%
  pest or weed control at 500 g/ha: 100%
rice
  plant injury at 250 g/ha: 10%
Goosegrass [2]
  pest or weed control at 125 g/ha: 100%
  pest or weed control at 500 g/ha: 100%
kochia
  pest or weed control at 125 g/ha: 90%
  pest or weed control at 500 g/ha: 100%
blackgrass
  pest or weed control at 125 g/ha: 80%
  pest or weed control at 500 g/ha: 80%
foxtail, giant
  pest or weed control at 125 g/ha: 90%
  pest or weed control at 500 g/ha: 90%
ragweed
  pest or weed control at 125 g/ha: 60%
  pest or weed control at 500 g/ha: 100%
ryegrass, Italian
  pest or weed control at 125 g/ha: 80%
  pest or weed control at 500 g/ha: 100%
pigweed, palmer
  pest or weed control at 125 g/ha: 90%
  pest or weed control at 500 g/ha: 90%
corn
  plant injury at 125 g/ha: 90%
  Corn plant response rating (crop injury, 0 = no effect, 100 = complete kill) at 500 g/ha: 90%
